The record followed here is patent US20230172990A1, “EXTRACELLULAR VESICLE COMPOSITIONS AND THE USE THEREOF IN THE TREATMENT OF SKIN CONDITIONS AND IN IMMUNE MODULATION” (priority 2020, published 2023).

In assay [1] the test system is elderly AT-MSCs. Description: Intracellular ROS level (H2-DCFDA fluorescence) in AT-MSCs. The conditions noted are these: 20 μM Eda; for ROS levels in elderly AT-MSCs after 24 hours of culture with agent: 1 mM NAC, 2 μM AA. The assay is classed as cell-based, human. Here is the method:
The expression of ROS in infant- and elderly-derived ATMSCs was evaluated. The intracellular ROS level was measured using 2′,7′-dichlorodihydrofluorescein diacetate (H2-DCFDA, Invitrogen) according to the manufacturer's instructions. Briefly, after reaching 80% confluence, the ATMSCs were washed with PBS and incubated with PBS containing 10 μM H2-DCFDA at 37° C. for 30 minutes. The fluorescence intensity was analyzed by absorbance at 495 nm and 525 nm wavelengths using a photoemission spectrophotometer (Corona Electric, Japan).
(§1) While not wishing to be bound by theory, the oxidative stress and resulting accumulation of ROS are believed to relate to the impaired function of elderly AT-MSCs. The effects of anti-oxidative agents on elderly AT-MSCs were tested and the expression of ROS in elderly AT-MSCs were measured following culture in the presence of 20 μM Edaravone (Eda), 1 mM N-acetylcysteine (NAC), or 2 μM Ascorbic Acid (AA), respectively. […] The concentration of Eda, NAC and AA was maintained in the culture media throughout the culture period. The effects of anti-oxidative agents on cell senescence were also investigated. Cell senescence was assessed by measuring the activity of senescence associated (SA) β-galactosidase following 6 or 12 passages of culture in the presence of 20 μM Eda, 1 mM NAC, or 2 μM AA. […] In FIGS. 3A, 3B and 3C, *=P<0.05, **=P<0.01, and ns=not significant.

Assay [2] concerns streptozotocin-induced diabetic mouse punch biopsy model. Description: Mouse punch biopsy wound healing model (streptozotocin-induced diabetic mice). Type of assay: in vivo. Particulars: elderly AT-MSCs cultured 24 hours with 20 μM Eda, 1 mM NAC or 2 μM AA. Here is the method: The effect of the anti-oxidative agents Eda, NAC and AA on the wound healing ability of elderly AT-MSCs was investigated using the mouse punch biopsy model, as described in Dunn et al., J Vis Exp. (75): 50265, 2013). Briefly, 7-week-old male C57BL/6 mice were anesthetized using avertin and shaved. Two wounds were established using 5 mm biopsy punch in the mice upper dorsal area. MSCs (5×10^5 cells/wound) or EVs (4 μg/wound) were injected at 4 points surrounding the punch area. Each mouse had two punched wounds, (1) PBS and (2) cells or EV-treatment. A splint was stitched to the surrounding wound areas and covered with Tegaderm (3M, USA), and the wound sites were observed every day. The images of the wound areas were captured, and the necrotic areas were analyzed using Image J software (NIH, MD).

Assay [3] deals with elderly AT-MSCs. Briefly: Cell senescence, senescence associated (SA) β-galactosidase activity. The assay is classed as cell-based, human. Particulars: 6 or 12 passages of culture with 20 μM Eda. Here is the method:
as §1

SMILES strings stand for the structures.

In the case of `O=C1O[C@H]([C@@H](O)CO)C(O)=C1O` [AA, Ascorbic Acid], in the assay on elderly AT-MSCs [1], the “ROS levels in elderly AT-MSCs after 24 hours of culture with agent” value (“ROS levels in elderly AT-MSCs” for short) is reported as “reduced ROS levels”. Also, the “Wound healing ability of elderly AT-MSCs cultured with the agent” value (“Wound healing ability” below) in assay [2] is on record as “no effect”.

As for `CC(=O)N[C@@H](CS)C(=O)O` [NAC, N-acetylcysteine], the “ROS levels in elderly AT-MSCs” value in the assay with elderly AT-MSCs [1] is given as “reduced ROS levels”. The “Wound healing ability” value in assay [2] is “no effect”.

`CC1=NN(c2ccccc2)C(=O)C1` [Eda, Edaravone]: in the assay with elderly AT-MSCs [1], the “ROS levels in elderly AT-MSCs” value is on record as “reduced ROS levels”. The “ROS reducing effect in elderly AT-MSCs following 1 cell passage” value in the assay on elderly AT-MSCs [1] (1 cell passage) is “ROS reducing effects of Eda were evident”. Further, the “Wound healing ability” value in assay [2] is on record as “significantly improved wound healing”. Moreover, the “(SA) β-galactosidase activity (cell senescence)” value in the assay with elderly AT-MSCs [3] is listed as “reduced (SA) β-galactosidase activity”.
